Data from ChEMBL document CHEMBL1909046, “DrugMatrix in vitro pharmacology data”.

Columns and labels:
Insulin receptor = Insulin receptor (Rattus norvegicus, UniProt P15127); assay type: cell membranes, Wistar, Liver, Membrane; note: in other assays of this panel Not Active means under 50% inhibition at 10 µM
[1] = target: Mitogen-activated protein kinase 14 (Homo sapiens, UniProt Q16539); parameters: species or system Escherichia coli;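 note: inhibition of p38alpha enzyme activity in a biochemical kinase assay, with myelin basic protein serving as substrate; in other assays of this panel Not Active means under 50% inhibition at 10 µM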
Sequence of Mitogen-activated protein kinase 14 (Q16539 whole entry): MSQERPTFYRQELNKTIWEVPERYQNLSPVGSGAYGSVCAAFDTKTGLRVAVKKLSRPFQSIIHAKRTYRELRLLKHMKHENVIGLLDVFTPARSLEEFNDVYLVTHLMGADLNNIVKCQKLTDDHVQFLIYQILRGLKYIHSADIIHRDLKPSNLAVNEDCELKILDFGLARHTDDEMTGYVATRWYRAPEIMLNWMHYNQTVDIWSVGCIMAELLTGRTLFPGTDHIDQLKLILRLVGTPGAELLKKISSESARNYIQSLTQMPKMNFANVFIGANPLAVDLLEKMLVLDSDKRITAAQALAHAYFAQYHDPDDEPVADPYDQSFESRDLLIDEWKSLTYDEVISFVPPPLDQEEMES

[2] = target: T1, Cholecystokinin receptor type A (Homo sapiens, UniProt P32238); assay type: cell membranes, Membrane; settings: 1321-n1; note: in other assays of this panel Not Active means under 50% inhibition at 10 µM
T1 sequence (P32238 whole entry): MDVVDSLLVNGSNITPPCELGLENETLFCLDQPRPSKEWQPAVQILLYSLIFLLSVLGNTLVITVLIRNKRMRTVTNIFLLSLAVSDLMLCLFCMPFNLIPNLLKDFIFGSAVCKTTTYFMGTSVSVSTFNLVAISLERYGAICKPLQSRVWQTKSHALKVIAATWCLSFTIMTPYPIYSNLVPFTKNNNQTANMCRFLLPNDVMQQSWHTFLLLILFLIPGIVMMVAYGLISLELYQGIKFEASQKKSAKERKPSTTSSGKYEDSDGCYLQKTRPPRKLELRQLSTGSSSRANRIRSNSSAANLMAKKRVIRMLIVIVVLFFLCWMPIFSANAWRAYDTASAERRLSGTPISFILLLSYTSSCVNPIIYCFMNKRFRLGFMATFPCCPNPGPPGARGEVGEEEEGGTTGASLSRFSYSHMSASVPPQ

[3] = target: T2, Polyunsaturated fatty acid lipoxygenase ALOX15 (Oryctolagus cuniculus, UniProt P12530); test: biochemical; assay type: tissue-based, Reticulocytes; settings: reticulocytes;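 note: inhibition of 15-lipoxygenase enzyme activity measured with linoleic acid as the substrate; in other assays of this panel Not Active means under 50% inhibition at 10 µM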
T2 sequence (P12530 whole entry): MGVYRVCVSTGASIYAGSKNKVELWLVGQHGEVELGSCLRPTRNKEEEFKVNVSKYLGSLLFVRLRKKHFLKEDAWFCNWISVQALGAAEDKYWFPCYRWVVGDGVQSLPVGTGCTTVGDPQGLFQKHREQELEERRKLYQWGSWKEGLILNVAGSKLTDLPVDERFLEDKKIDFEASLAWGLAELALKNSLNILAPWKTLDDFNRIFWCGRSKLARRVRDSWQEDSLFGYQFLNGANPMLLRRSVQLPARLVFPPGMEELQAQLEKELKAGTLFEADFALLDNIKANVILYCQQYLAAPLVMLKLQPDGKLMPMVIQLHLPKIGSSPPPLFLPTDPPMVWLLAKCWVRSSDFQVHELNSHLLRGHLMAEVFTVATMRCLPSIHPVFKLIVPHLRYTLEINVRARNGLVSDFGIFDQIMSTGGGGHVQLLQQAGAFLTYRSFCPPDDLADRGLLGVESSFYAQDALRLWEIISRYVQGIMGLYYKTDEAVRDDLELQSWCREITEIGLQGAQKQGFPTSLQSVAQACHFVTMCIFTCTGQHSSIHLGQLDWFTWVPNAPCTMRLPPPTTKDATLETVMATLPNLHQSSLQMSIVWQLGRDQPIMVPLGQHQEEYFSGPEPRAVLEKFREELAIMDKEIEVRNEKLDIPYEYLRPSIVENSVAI

[4] = target: Sigma non-opioid intracellular receptor 1 (Homo sapiens, UniProt Q99720); test: DRUGMATRIX: Sigma1 radioligand binding (ligand: [3H] Haloperidol); assay type: cell membranes, Jurkat, Membrane; settings: jurkat; Not Active = under 50% inhibition at 10 µM
Sequence of Sigma non-opioid intracellular receptor 1 (Q99720 whole entry): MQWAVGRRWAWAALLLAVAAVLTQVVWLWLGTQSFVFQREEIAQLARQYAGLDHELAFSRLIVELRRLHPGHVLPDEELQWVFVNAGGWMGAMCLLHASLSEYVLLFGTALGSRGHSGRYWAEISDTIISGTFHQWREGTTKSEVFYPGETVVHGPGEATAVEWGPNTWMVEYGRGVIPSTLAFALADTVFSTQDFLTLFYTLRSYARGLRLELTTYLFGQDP

[5] = target: T3, C-X-C chemokine receptor type 2 (Homo sapiens, UniProt P25025); assay type: cell membranes, Membrane; settings: cho-k1; note: in other assays of this panel Not Active means under 50% inhibition at 10 µM
T3 sequence (P25025 whole entry): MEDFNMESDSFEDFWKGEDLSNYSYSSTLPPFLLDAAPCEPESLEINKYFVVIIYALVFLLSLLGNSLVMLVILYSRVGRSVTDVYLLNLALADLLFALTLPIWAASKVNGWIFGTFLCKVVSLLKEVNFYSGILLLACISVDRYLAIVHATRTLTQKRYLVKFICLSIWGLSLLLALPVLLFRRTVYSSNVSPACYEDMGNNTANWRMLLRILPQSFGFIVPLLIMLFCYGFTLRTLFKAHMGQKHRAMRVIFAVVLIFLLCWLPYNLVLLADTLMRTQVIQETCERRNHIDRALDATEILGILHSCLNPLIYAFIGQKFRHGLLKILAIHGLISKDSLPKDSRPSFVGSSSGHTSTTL

Estrogen receptor beta = Estrogen receptor beta (Homo sapiens, UniProt Q92731); settings: sf9; note: in other assays of this panel Not Active means under 50% inhibition at 10 µM
Sequence of Estrogen receptor beta (Q92731 whole entry): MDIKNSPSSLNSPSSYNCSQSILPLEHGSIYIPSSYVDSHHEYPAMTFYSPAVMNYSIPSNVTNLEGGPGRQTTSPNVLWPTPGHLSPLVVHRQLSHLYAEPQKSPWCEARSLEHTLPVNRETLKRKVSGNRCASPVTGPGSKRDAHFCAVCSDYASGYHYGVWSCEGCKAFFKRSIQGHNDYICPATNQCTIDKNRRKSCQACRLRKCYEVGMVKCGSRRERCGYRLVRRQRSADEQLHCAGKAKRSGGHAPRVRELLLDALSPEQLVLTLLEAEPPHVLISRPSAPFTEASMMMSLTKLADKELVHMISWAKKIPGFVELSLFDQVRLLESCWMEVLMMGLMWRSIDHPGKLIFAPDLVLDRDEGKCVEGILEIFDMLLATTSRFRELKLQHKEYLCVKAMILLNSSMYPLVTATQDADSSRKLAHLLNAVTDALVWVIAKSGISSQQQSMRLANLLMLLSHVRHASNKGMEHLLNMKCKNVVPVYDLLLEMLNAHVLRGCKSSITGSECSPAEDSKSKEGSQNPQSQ

Measured: IC50

Sequence of Insulin receptor (P15127 27-759 limits assumed): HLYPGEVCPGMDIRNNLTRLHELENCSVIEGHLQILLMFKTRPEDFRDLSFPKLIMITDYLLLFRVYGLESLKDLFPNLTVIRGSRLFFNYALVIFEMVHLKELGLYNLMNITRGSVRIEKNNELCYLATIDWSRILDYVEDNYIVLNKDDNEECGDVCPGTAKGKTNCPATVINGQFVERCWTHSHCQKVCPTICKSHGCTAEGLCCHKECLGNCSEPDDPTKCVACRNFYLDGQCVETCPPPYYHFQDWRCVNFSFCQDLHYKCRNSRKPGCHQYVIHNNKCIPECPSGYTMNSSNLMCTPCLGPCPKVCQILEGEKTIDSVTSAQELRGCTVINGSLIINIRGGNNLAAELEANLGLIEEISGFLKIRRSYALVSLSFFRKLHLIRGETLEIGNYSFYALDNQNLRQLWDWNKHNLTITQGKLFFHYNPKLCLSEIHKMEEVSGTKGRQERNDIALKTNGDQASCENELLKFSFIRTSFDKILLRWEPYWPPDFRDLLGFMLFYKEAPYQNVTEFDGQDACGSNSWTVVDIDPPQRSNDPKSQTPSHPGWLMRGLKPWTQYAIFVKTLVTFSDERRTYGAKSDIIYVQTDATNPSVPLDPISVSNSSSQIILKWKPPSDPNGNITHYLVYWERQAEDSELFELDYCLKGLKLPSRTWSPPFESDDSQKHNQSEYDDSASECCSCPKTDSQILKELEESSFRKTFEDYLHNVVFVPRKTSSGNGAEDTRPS
Sequence of Insulin receptor (P15127 764-1383 limits assumed): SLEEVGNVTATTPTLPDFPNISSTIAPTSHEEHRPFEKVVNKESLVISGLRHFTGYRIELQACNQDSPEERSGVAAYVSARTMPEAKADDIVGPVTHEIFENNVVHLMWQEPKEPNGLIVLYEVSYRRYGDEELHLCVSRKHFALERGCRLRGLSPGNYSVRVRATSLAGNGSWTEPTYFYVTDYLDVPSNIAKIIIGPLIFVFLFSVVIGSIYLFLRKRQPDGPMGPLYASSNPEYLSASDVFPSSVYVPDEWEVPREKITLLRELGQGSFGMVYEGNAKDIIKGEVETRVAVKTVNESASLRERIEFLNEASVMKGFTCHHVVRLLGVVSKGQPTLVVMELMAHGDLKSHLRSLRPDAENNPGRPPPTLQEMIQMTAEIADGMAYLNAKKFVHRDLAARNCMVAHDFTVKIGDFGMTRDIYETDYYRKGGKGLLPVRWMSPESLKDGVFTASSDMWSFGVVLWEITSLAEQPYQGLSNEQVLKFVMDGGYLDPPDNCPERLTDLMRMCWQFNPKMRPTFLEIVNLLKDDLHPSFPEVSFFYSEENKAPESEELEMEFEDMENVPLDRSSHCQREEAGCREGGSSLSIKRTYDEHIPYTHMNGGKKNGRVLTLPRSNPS

O=c1oc2ccccc2c(O)c1Cc1c(O)c2ccccc2oc1=O [DICUMAROL]
Not Active: all assays above
